According to patent US20100061982A1, “3-SUBSTITUTED-1H-INDOLE, 3-SUBSTITUTED-1H-PYRROLO[2,3-B]PYRIDINE AND 3-SUBSTITUTED-1H-PYRROLO[3,2-B]PYRIDINE COMPOUNDS, THEIR USE AS MTOR KINASE AND PI3 KINASE INHIBITORS, AND THEIR SYNTHESES” (priority 2008, published 2010):
≈ marks a conversion by molar mass, not a printed value. Where two headings read alike, the source gives them in different places.

Legend:
PI3K alpha = PI3K alpha (Homo sapiens, UniProt P42336); test: PI3K-alpha Fluorescence Polarization Assay; format: biochemical
[1] = Microsome Stability (15 min), rat; format: in vitro ADME; conditions: microsomes, Phase I (NADPH), read-out: Microsome Stability (15 min) T ½ Phase I rat
[2] = Plasma Stability (37° C.), nude mouse
[3] = Plasma Stability (37° C.), rat
[4] = In vivo blood/plasma and tumor levels of prodrug and metabolites after 50 mg, kg po; conditions: 50 mg
physchem = conditions: pH 7.4, aqueous buffer
[5] = Microsome Stability (15 min), human; format: in vitro ADME; conditions: microsomes, Phase I (NADPH), read-out: Microsome Stability (15 min) T ½ Phase I human
[6] = PAMPA permeability pH 7.4
[7] = Buffer Stability (37° C.)
mTOR [8] = target: T1, mTOR (Homo sapiens, UniProt P42345); test: mTOR Enzyme Assay (DELFIA, purified enzyme); format: biochemical; parameters: FLAG; conditions: read-out: mTOR Mean IC50
[9] = Microsome Stability (15 min), nude mouse; format: in vitro ADME; conditions: microsomes, Phase I (NADPH), read-out: Microsome Stability (15 min) T ½ Phase I nude mouse
[10] = CACO2 permeability a-b/b-a; format: in vitro ADME; conditions: human, Caco-2; for Papp A→B: a − b (first value of cell), read-out: CACO2 Pe a − b; for Papp B→A: b − a (second value of cell), read-out: CACO2 Pe b − a
[11] = test system: human tumor xenograft models; conditions: cited from earlier work
[12] = test system: acute lymphoblastic leukemia; conditions: in vivo; cited from earlier work
mTOR [13] = target: T1, mTOR; conditions: read-out: mTOR IC50; mTOR complexes / mTOR enzymes; cited from earlier work

PI3K alpha, sequence (P42336 whole entry, species assumed): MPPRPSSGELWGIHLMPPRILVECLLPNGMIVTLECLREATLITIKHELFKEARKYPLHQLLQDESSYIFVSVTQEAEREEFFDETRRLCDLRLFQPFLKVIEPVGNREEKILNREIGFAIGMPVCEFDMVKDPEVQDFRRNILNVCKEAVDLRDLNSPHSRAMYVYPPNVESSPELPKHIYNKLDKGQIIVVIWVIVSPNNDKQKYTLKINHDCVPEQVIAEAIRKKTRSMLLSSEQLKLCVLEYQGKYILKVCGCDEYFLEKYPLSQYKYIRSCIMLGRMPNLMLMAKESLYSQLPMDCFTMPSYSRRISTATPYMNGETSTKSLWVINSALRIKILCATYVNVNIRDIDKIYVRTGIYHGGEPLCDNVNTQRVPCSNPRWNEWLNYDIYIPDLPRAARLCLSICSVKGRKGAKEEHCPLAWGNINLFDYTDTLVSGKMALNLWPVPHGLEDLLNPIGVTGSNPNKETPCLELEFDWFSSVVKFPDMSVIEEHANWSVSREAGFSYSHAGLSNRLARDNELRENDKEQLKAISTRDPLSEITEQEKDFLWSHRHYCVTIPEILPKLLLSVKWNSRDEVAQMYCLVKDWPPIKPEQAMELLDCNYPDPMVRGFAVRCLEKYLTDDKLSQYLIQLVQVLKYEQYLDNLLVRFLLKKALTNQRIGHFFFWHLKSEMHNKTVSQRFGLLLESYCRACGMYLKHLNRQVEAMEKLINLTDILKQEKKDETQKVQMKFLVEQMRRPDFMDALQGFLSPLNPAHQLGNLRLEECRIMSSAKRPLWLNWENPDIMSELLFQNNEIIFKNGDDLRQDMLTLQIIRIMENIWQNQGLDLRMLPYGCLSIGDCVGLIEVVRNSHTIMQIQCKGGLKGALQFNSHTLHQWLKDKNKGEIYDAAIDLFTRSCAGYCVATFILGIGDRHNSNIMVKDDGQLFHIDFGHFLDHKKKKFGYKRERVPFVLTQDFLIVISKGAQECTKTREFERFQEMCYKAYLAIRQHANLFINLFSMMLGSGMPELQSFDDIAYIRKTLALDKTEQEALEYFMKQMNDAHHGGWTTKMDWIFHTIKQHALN
PI3K alpha, sequence (P27986 whole entry partner, species assumed): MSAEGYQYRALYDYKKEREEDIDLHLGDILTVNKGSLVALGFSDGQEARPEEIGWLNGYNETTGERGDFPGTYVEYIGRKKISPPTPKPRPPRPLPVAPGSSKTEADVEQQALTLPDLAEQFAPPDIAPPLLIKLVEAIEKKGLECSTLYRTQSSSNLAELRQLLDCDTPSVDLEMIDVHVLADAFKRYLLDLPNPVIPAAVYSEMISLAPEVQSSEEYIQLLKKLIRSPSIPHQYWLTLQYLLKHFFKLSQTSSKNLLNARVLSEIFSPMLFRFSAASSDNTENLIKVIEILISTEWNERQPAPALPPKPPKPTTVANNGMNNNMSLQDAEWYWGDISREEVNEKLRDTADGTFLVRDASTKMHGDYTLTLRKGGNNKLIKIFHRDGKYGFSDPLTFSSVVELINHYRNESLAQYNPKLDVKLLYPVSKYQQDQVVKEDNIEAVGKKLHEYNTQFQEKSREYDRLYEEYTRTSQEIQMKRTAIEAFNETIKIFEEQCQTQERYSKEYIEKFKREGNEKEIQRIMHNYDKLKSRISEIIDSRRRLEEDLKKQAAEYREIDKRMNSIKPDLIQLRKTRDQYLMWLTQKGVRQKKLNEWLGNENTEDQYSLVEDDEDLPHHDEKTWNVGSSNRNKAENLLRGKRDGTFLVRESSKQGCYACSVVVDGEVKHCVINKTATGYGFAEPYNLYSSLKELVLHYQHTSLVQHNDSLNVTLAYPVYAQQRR

| Structure (SMILES) | half-life [1] [min] | Plasma Stability (37° C.) % Remaining (3-3.5 hours) nude mouse [2] [%] | Plasma Stability (37° C.) % Remaining (3-3.5 hours) rat [3] [%] | half-life [5] [min] | PAMPA Pe [6] | Buffer Stability (37° C.) % Remaining (at 16-23 hours) SGF [7] [%] | Buffer Stability (37° C.) % Remaining (at 16-23 hours) SIF [7] [%] | Buffer Stability (37° C.) % Remaining (at 16-23 hours) pH 1 [7] [%] | Buffer Stability (37° C.) % Remaining (at 16-23 hours) pH 4.5 [7] [%] | Buffer Stability (37° C.) % Remaining (at 16-23 hours) pH 6.6 [7] [%] | Buffer Stability (37° C.) % Remaining (at 16-23 hours) pH 7.4 [7] [%] | Buffer Stability (37° C.) % Remaining (at 16-23 hours) pH 9 [7] [%] | IC50 (mTOR [8]) [µM] | IC50 (PI3K alpha) [µM] | further results |
| --- | --- | --- | --- | --- | --- | --- | --- | --- | --- | --- | --- | --- | --- | --- | --- |
| COc1ccc2[nH]c(-c3ccccc3)c(/C=C3\Oc4cc(OC(=O)N(c5ccccc5)c5ccccc5)cc(OC(=O)N(c5ccccc5)c5ccccc5)c4C3=O)c2c1 [Example 11, (2Z)-2-[(5-methoxy-2-phenyl-1H-indol-3-yl)methylene]-3-oxo-2,3-dihydro-1-benzofuran-4,6-diyl bis(diphenylcarbamate)] | > 30 | 85 | 95 | 23 | 1.14 10e−6 cm/s | 100 | 98 | 99 | 103 | 100 | 100 | 89 |  |  | IC50 (PI3K alpha; read-out: PI3K alpha Mean IC50): > 5.05 µM; plasma prodrug concentration ([4]; 0.5 h): bql, bql; plasma prodrug concentration ([4]; 2 h): bql, bql; solubility (physchem): 1 µg/mL (≈ 1.27 µM) |
| COc1ccc2[nH]c(-c3ccccc3)c(/C=C3\Oc4cc(OP(=O)(O)O)ccc4C3=O)c2c1 [Example 27, (2Z)-2-[(5-methoxy-2-phenyl-1H-indol-3-yl)methylene]-3-oxo-2,3-dihydro-1-benzofuran-6-yl dihydrogen phosphate] | 19 |  |  |  | 0 10e−6 cm/s |  |  |  |  |  |  |  | 2.45 |  | IC50 (PI3K alpha; read-out: PI3K alpha Mean IC50): 0.123 µM; solubility (physchem): 65 µg/mL |
| COc1ccc2[nH]c(-c3ccccc3)c(/C=C3\Oc4cc(OP(=O)(O)O)cc(OP(=O)(O)O)c4C3=O)c2c1 [Example 38, (2Z)-2-[(5-methoxy-2-phenyl-1H-indol-3-yl)methylene]-3-oxo-2,3-dihydro-1-benzofuran-4,6-diyl bis[dihydrogen (phosphate)]] |  |  |  |  | 0.01 10e−6 cm/s |  |  |  |  |  |  |  | 0.985 |  | IC50 (PI3K alpha; read-out: PI3K alpha Mean IC50): 0.89 µM; solubility (physchem): > 100 µg/mL |
| CN(C)C(=O)Oc1cc(OC(=O)N(C)C)c2c(c1)O/C(=C\c1cn(C)c3nccc(-c4ccccc4)c13)C2=O [Example 43, (2Z)-2-[(1-methyl-4-phenyl-1H-pyrrolo[2,3-b]pyridin-3-yl)methylene]-3-oxo-2,3-dihydro-1-benzofuran-4,6-diyl bis(dimethylcarbamate)] |  | 52 | 54 | 11 | Undetected | 100 | 100 | 100 | 100 | 100 | 100 | 100 | > 4 | > 10 | half-life [9]: 12 min; Papp A→B [10]: 2.2 ×10⁻⁶ cm/s; Papp B→A [10]: 1 ×10⁻⁶ cm/s |
| CN(C)C(=O)Oc1cccc2c1C(=O)/C(=C/c1cn(C)c3nccc(N4CC5CCC(C4)O5)c13)O2 [Example 44, (2Z)-2-{[1-methyl-4-(8-oxa-3-azabicyclo[3.2.1]oct-3-yl)-1H-pyrrolo[2,3-b]pyridin-3-yl]methylene}-3-oxo-2,3-dihydro-1-benzofuran-4-yl dimethylcarbamate] | 3 | 64 | 51 | 8 | Undetected | 102 | 100 | 102 | 100 | 100 | 100 | 100 | 0.031 | 2.49 | half-life [9]: 4 min |
| COc1ccc2c(c1)c(/C=C1\Oc3cc(OC(=O)N(C)c4ccccc4)ccc3C1=O)c(C)n2CCN1CCN(C)CC1 [Example 46, (2Z)-2-({5-methoxy-2-methyl-1-[2-(4-methylpiperazin-1-yl)ethyl]-1H-indol-3-yl}methylene)-3-oxo-2,3-dihydro-1-benzofuran-6-yl methyl(phenyl)carbamate] | 10 | 19 | 22 |  | Undetected | 98 | 100 | 101 | 99 | 98 | 97 | 96 | > 4 |  |  |
| COc1ccc2c(c1)c(/C=C1\Oc3cc(OC(=O)N(C(C)C)C(C)C)ccc3C1=O)c(C)n2CCN1CCN(C)CC1 [Example 47, (2Z)-2-({5-methoxy-2-methyl-1-[2-(4-methylpiperazin-1-yl)ethyl]-1H-indol-3-yl}methylene)-3-oxo-2,3-dihydro-1-benzofuran-6-yl diisopropylcarbamate] | 16 | 82 | 92 |  | Undetected | 98 | 94 | 97 | 100 | 95 | 100 | 96 | > 4 | > 10 |  |
| CN(C)C(=O)Oc1cc(OC(=O)N(C)C)c2c(c1)O/C(=C\c1cn(C)c3cccc(-c4ccccc4)c13)C2=O [Example 48, (2Z)-2-[(1-methyl-4-phenyl-1H-indol-3-yl)methylene]-3-oxo-2,3-dihydro-1-benzofuran-4,6-diyl bis(dimethylcarbamate)] |  | 80 | >100 | 25 | Undetected | 100 | 100 | 100 | 100 | 100 | 100 | 100 | 3.15 | > 10 | half-life [9]: 14 min; Papp A→B [10]: 0.5 ×10⁻⁶ cm/s; Papp B→A [10]: 0.5 ×10⁻⁶ cm/s |
| Cn1c(=O)n(-c2ccc(C(C)(C)C#N)cc2)c2c3cc(-c4cnc5ccccc5c4)ccc3ncc21 [NVP-BEZ-235, 2-methyl-2-(4-(3-methyl-2-oxo-8-(quinolin-3-yl)-2,3-dihydro-1H-imidazo[4,5-c]quinolin-1-yl)phenyl)propanenitrile] |  |  |  |  |  |  |  |  |  |  |  |  |  |  | activity in human tumor xenograft models ([11]; prostrate (PC-3) and glioblastoma (U-87)): demonstrated activity |
| Oc1cccc(-c2nc(N3CCOCC3)c3oc4ncccc4c3n2)c1 [PI103, 3-(4-(4-morpholinyl)pyrido[3′,′: 4,5]furo[3,2-d]pyrimidin-2-yl)phenol] |  |  |  |  |  |  |  |  |  |  |  |  |  |  | activity in human tumor xenograft models ([11]; I.P. dosing in mice, U87MG, PC3, MDA-MB-468, MDA-MB-435, HCT 116, SKOV3, IGROV-1): demonstrated activity |
| CO[C@H]1C[C@@H]2CC[C@@H](C)[C@@](O)(O2)C(=O)C(=O)N2CCCC[C@H]2C(=O)O[C@H]([C@H](C)C[C@@H]2CC[C@@H](OC(=O)C(C)(CO)CO)[C@H](OC)C2)CC(=O)[C@H](C)/C=C(\C)[C@@H](O)[C@@H](OC)C(=O)[C@H](C)C[C@H](C)/C=C/C=C/C=C/1C [Torisel] |  |  |  |  |  |  |  |  |  |  |  |  |  |  | activity in NOS/SCID xenograft mouse model of acute lymphoblastic leukemia [12]: active |
| FC(F)c1nc2ccccc2n1-c1nc(N2CCOCC2)nc(N2CCOCC2)n1 [ZSTK474, 2-(2-difluoromethylbenzoimidazol-1-yl)-4,6-dimorpholino-1,3,5-triazine] |  |  |  |  |  |  |  |  |  |  |  |  |  |  | IC50 (mTOR [13]): > 10 µM; tumor growth in mouse human xenograft cancer models ([11]; chronic oral administration, 400 mg/kg, A549, PC-3, WiDr): completely inhibited growth |
